Where two headings read alike, the source gives them in different places.
Experiments:
cells [1] = tested on: cells
Experimental: Effect of Hydrogel Precursor Solution Components on Cell Viability. Cells (10^5 cells/mL) were plated on 48-well plates and were allowed to adhere to the plates overnight. […] The pH of one solution was adjusted to 5 (using […]) and that of the other solution was adjusted to 8 (using 1 M NaOH). […] The treatment groups were compared to untreated controls where cells were incubated with media. […] To this, 30 μL of MTS test reagent was added. Cells were then incubated with MTS test reagent for 3 hours and absorbance recorded at 490 nm on a UV plate reader.
(§1) Specifically, cells were treated with 0.05% to 1.5% (w/v) APS at pH 5 for 10 minutes or 0.05% to 1.5% (w/v) APS at pH 8 for 24, 48, or 72 hours and compared to controls in a MTS test and LIVE/DEAD cell assay. Similarly, cells were treated with 0.05% to 0.90% (w/v) TEMED at pH 5 for 10 minutes or 0.05% to 0.90% (w/v) TEMED at pH 8 for 24, 48, or 72 hours and compared to controls in a MTS test and LIVE/DEAD cell assay. Likewise, cells were treated with 0.05% to 1.0% (w/v) F-127 at pH 5 for 10 minutes or 0.05% to 1.0% (w/v) F-127 at pH 8 for 24, 48, or 72 hours and compared to controls in a MTS test and LIVE/DEAD cell assay.
(§2) Treatment groups were compared to untreated controls in both a MTS test and LIVE/DEAD cell assay.
(§3) The suspension in the test tube was allowed to stand for 5 minutes. Cells were treated with the supernatant for 10 minutes or 24, 48, or 72 hours. The saturated solution was aspirated from the wells, cells were washed and analyzed with the MTS test and LIVE/DEAD cell assay.
(§4) The effects of precursor solution constituents on cell viability were analyzed over a 72 hour period. The experiments were designed based on the conditions that the cells would be exposed to during the fabrication of superporous hydrogels; i.e., exposure to each constituent of SPH individually at pH of 5 for 10 minutes and thereafter for 24, 48 and 72 hours at pH of 8. […] 96 AQUEOUS ONE® solution Cell Proliferation Assay (MTS) and LIVE/DEAD cell assay were used to determine the effect of each of the constituents on cell viability.

cells [2] = test: Effect of precursor solution components, LIVE/DEAD cell assay
Experimental: LIVE/DEAD cell assay was used to visualize live and dead cells (Gaugain, et al. (1978) Biochemistry 17:5071-8; Gaugain, et al. (1978) Biochemistry 17:5078-88). […] To the resuspended cells was added 100 μL of calcein-AM/ethidium homodimer stain (stock solutions of the dyes were prepared as per manufacturer's protocol-Molecular Probes). Cells were incubated for 30 minutes and images were captured of both treatment and control groups using a fluorescence microscope.
as §1, §2, §3, §4

gingival fibroblasts = conditions: cited from earlier work
cells [3] = test: Effect of physical foaming (nitrogen gas/compressed air) on cell viability; type: cell-based
Experimental: Effect of Physical Foaming on Cell Viability. Cells (10^5 cells/mL) were suspended in media and treated with the precursor solution used in fabrication of superporous hydrogels. […] The precursor solution was then exposed to UV for 3.5 minutes. In one treatment group nitrogen gas/compressed air was applied to the top of the cells at 200 psi for 2 minutes at a flow rate of 4000 mL/minute. In a second treatment group, nitrogen gas/compressed air was applied from below the cells suspended in the Buchner funnel at 200 psi for 2 minutes at a flow rate of 4000 mL/minute. Thereafter, each of the groups was exposed to UV at 5 mW/cm^2 for 3 minutes, washed twice with DPBS containing Ca and Mg, resuspended in fresh media and transferred to a 48-well plate. Cells were incubated for 24, 48 and 72 hours and cell viability was determined via the MTS test and LIVE/DEAD cell assay.

cells [4] = conditions: cells in media at pH 5, 10 minutes, MTS and LIVE/DEAD
Experimental: A third group was the untreated controls. At the end of 10 minutes, the cells were washed, resuspended in fresh media, and analyzed with the MTS test reagent and LIVE/DEAD cell assay.

`N.N.O=S(=O)(O)OOS(=O)(=O)O` [APS, Ammonium persulphate] gave a cell viability (cells [1]; 0.05% APS, MTS) of 60%, a viable cells (cells [1]; 0.70% APS, 10 minutes, pH 5, MTS) of 21.25±9.6% and a viable cells (cells [1]; 0.70% APS, 24 hours, pH 8, MTS) of 16.83±4.8%. The viable cells (cells [1]; 0.70% APS, 48 hours, pH 8, MTS) was 14.8±6.8%, the viable cells (cells [1]; 0.70% APS, 72 hours, pH 8, MTS) was 11.63±0.3% and the toxicity (cells [1]; APS 0.05% to 1.5%, 10 minutes, 24, 48 and 72 hours) was “toxic to cells at all concentrations tested”. The live/dead cells (cells [2]; 0.05% APS) was “the cells were dead” and the live/dead cells (cells [2]; APS, end of each incubation period) was “dead cells at the end of each of the incubation periods”.
In the case of `CN(C)CCN(C)C` [TEMED, N,N,N′,N′-tetramethylethylenediamine], the viable cells (cells [1]; 0.90% TEMED, 10 minutes, pH 5, MTS) is reported as 108.59±1.23%, the viable cells (cells [1]; 0.90% TEMED, 24 hours, pH 8, MTS) is reported as 30.63±5.51% and the viable cells (cells [1]; 0.90% TEMED, 48 hours, pH 8, MTS) is reported as 20.41±6.92%. The viable cells (cells [1]; 0.90% TEMED, 72 hours, pH 8, MTS) was 18.53±12.82%, the toxicity (cells [1]; TEMED 0.05% to 0.90%, 10 minutes) was “no significant toxicity” and the toxicity (cells [1]; TEMED all concentrations, 24, 48 and 72 hours) was “toxicity observed at all concentrations”. The live/dead cells (cells [2]; TEMED all concentrations, 10 minutes) was “cells were alive” and the live/dead cells (cells [2]; TEMED, longer time periods) was “they were dead”.
In the case of `O=C(O)CC(O)(CC(=O)O)C(=O)O` [citric acid], the cell death (gingival fibroblasts; 47.6 mM (pH 2.3) in water, within three minutes) is given as “complete cell death”, the “inhibition of attachment and spreading of fibroblasts on Type I collagen” value (gingival fibroblasts; medium containing 11.9 mM) is given as 22% and the “inhibition of attachment and spreading of fibroblasts on culture plates” value (gingival fibroblasts; medium containing 11.9 mM) is given as 58%. The “inhibition of protein synthesis” value (gingival fibroblasts; within three hours of incubation) was 0.28%, the viable cells (cells [1]; 10 min, 2.4 % (w/v), pH 5) was “about 99.7±11.6%” and the viable cells (cells [1]; 24 h, 2.4 % (w/v), pH 8) was 28.95±5.70%. It also gave a viable cells (cells [1]; 48 h, 2.4 % (w/v), pH 8) of 15.81±1.80% and a viable cells (cells [1]; 72 h, 2.4 % (w/v), pH 8) of 16.20±6.81%.
In the case of `N#N` [nitrogen gas under pressure], the “cell death over 72 hours” value (cells [3]; cells washed and plated for 24, 48 and 72 hours after foaming) is reported as “cell death observed over 72 hours” and the “cell death compared to untreated controls” value (cells [3]; determined immediately after treating cells) is reported as “approximately 20%”.
With `[Na+].[OH-]` [sodium hydroxide] the “cell death on sudden pH change from acidic to alkaline” value (cells [4]) was “a significant amount of cell death”.
